# Results: paper PMC4085797, “Synthetic Inositol Phosphate Analogs Reveal that PPIP5K2 Has a Surface-Mounted Substrate Capture Site that Is a Target for Drug Discovery” (Chemistry & Biology, 2014)
# Numbering of substitutions follows the chain as printed. Entries after “also recorded” stand apart in the source; their conditions may differ.
# Experiments:
# [1] = target: T1, PPIP5K2^KD (kinase domain of human PPIP5K2) (Homo sapiens, UniProt O43314); test: ATPase activity of PPIP5K2KD (Pi release); format: biochemical; settings: for stimulation of ATPase activity (in words): wild-type enzyme; for EC50: dose-response, key of Figure 4A, n = 3, read-out: EC50, stimulation of ATPase activities
# T1 construct: The kinase domain of human PPIP5K2 (PPIP5K2^KD; residues 1–366); made in house
# T1 sequence (O43314 1-366): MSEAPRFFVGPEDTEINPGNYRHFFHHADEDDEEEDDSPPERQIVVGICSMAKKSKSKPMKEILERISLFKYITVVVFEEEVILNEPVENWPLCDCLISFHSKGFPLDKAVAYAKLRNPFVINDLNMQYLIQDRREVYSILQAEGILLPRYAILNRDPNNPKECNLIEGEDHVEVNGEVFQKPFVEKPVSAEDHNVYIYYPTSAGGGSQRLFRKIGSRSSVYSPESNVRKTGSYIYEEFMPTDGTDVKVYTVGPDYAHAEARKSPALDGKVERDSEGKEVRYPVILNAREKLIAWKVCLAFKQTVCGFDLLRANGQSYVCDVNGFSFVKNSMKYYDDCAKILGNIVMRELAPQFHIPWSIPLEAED
# Description: (§1) The initial InsP6 concentration was either 500 nM, 70 nM, or 40 nM. Various concentrations of 2,5-di-O-Bn-InsP4 were present as indicated. Radioactivity was assessed using an in-line Flo1 detector. The ADP-driven dephosphorylation of 100 nM 1,5-[PP]2-InsP4 by PPIP5K2^KD was usually determined by a luminescence-based assay of ATP accumulation ([Riley et al., 2012; Weaver et al., 2013]). The IC50 values were determined using GraphPad Prism v6.02 (n ≥ 3). In some experiments, 1,5-[PP]2-[^3H]InsP4 dephosphorylation by PPIP5K2^KD was assayed in 50 μl buffer containing 50 mM KCl, 20 mM HEPES pH 7.0, 7 mM MgSO4, 5 mM ADP, 1 mM EDTA. Reactions were then quenched, neutralized, and analyzed with HPLC using a Partisphere SAX column ([Weaver et al., 2013]); 1 ml fractions were collected for liquid scintillation spectrometry. The ATPase activity of PPIP5K2^KD (10–270 μg/ml) was assayed from Pi release following incubation at 37°C for 120–180 min in 20 μl reaction mixtures containing 20 mM Tris/HCl, pH 7.5, 10 mM ATP, 100 mM KCl, 0.1 mM EDTA, and 13 mM MgCl2.
# [2] = target: T1, PPIP5K2^KD (kinase domain of human PPIP5K2); test: Reverse-kinase assay: ADP-driven dephosphorylation of 1,5-[PP]2-InsP4, luminescence-based assay of ATP accumulation; format: biochemical; settings: for inhibition of [PP]2-InsP4 metabolism (in words): 100 nM 1,5-[PP]2-InsP4, Figure 4B; for IC50: 100 nM [PP]2-InsP4, key of Figure 4B, n = 3, read-out: IC50, inhibition of ADP-driven dephosphorylation of [PP]2-InsP4
# Description: The six compounds that were selected for the dose-response curves in the assays of ATP hydrolysis (Figure 4A) were now investigated for their effects upon diphosphoinositol polyphosphate metabolism by PPIP5K2^KD (Figure 4B). We used a high-throughput reverse-kinase assay that records ATP generated from ADP during the dephosphorylation of 100 nM 1,5-[PP]2-InsP4 ([Riley et al., 2012; Weaver et al., 2013]). Each of the tested analogs inhibited [PP]2-InsP4 metabolism by PPIP5K2^KD (Figure 4B). […] However, the inhibition by 2,5-di-O-Bn-InsP4 (10) was more unexpected because due to its bulk, and its less negative charge compared to physiological substrates, we predict it to be a poor ligand for the active site of the highly specific PPIP5K2^KD ([Wang et al., 2012]). Nevertheless, its ability to inhibit reverse-kinase activity was directly confirmed by high-performance liquid chromatography (HPLC) analysis of [PP]2-[^3H]InsP4 dephosphorylation (Figures S1A–S1C available online).
# as §1
# [3] = target: T1, PPIP5K2^KD (kinase domain of human PPIP5K2); design: method as in Weaver et al., 2013; settings: 25 μM; ref Weaver et al., 2013; cited from earlier work
# human PPIP5K2^KD = target: T2, human PPIP5K2^KD (Homo sapiens, UniProt O43314); design: method as in Weaver et al., 2013; settings: ref Weaver et al., 2013; cited from earlier work
# T2 construct: The kinase domain of human PPIP5K2 (PPIP5K2^KD; residues 1–366); made in house
# T2 sequence (O43314 1-366): T1 sequence (O43314 1-366)
# human IP6K2 = target: T3, human IP6K2 (Homo sapiens, UniProt Q9UHH9); design: method as in Saiardi et al., 2000; settings: ref Saiardi et al., 2000; cited from earlier work
# T3 construct: Full-length human IP6K2, the kinase domain of human PPIP5K2; made in house
# T3 sequence (Q9UHH9 1-426): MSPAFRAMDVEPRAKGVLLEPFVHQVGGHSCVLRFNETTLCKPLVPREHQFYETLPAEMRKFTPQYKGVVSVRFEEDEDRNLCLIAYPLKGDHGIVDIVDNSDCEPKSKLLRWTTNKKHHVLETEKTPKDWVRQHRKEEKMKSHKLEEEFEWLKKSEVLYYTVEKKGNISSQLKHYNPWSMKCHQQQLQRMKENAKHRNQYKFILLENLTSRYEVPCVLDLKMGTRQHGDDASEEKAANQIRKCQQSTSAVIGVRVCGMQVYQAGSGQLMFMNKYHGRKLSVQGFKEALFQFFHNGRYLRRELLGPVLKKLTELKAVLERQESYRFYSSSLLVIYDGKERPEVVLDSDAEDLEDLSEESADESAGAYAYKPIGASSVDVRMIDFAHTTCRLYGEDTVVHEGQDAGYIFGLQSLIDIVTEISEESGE
# PPIP5K2^KD R213A mutant = target: T4, PPIP5K2^KD R213A mutant (Homo sapiens, UniProt O43314, R213A); design: method as in Weaver et al., 2013; settings: R213A mutation; ref Weaver et al., 2013; cited from earlier work
# T4 construct: The kinase domain of human PPIP5K2 (PPIP5K2^KD; residues 1–366); made in house
# T4 sequence (O43314 1-366 R213A): T1 sequence (O43314 1-366) with R213A
# PPIP5K2^KD E192G mutant = target: T5, PPIP5K2^KD E192G mutant (Homo sapiens, UniProt O43314, E192G); test: ATPase activity of E192G mutant; format: biochemical
# T5 construct: The kinase domain of human PPIP5K2 (PPIP5K2^KD; residues 1–366); made in house
# T5 sequence (O43314 1-366 E192G): T1 sequence (O43314 1-366) with E192G
# Description: as §1
# Protein Expression, Purification, Crystallization and Structure Determination […]
# (§2) The structure was further manually rebuilt with COOT and refined with PHENIX and
# (§3) REFMAC from the CCP4 package. Ligand topology and parameter files were prepared using
# (§4) the PRODRG server. The molecular graphics representations were prepared with the program
# (§5) PyMol (Schrödinger, LLC). The 2D ligand-protein interaction diagrams were generated by
# (§6) LigPlot+. Atomic coordinates and structure factors have been deposited with the Protein Data
# (§7) Bank with accession codes: 4NZM, 4NZN, 4NZO.
# (§8) Mutants were generated using a site-directed mutagenesis kit (Stratagene). Pairs of complementary
# primers were designed as shown below, with mutagenic primers underlined (only 5’ primers are
# All mutated constructs were sequenced. Mutant proteins were expressed and purified as for wild-
# PPIP5K2^KD E192Q mutant = target: T6, PPIP5K2^KD E192Q mutant (Homo sapiens, UniProt O43314, E192Q); test: ATPase activity of E192Q mutant; format: biochemical; settings: 25 μM, Figure 7E
# T6 construct: The kinase domain of human PPIP5K2 (PPIP5K2^KD; residues 1–366); made in house
# T6 sequence (O43314 1-366 E192Q): T1 sequence (O43314 1-366) with E192Q
# Description: as §1
# Protein Expression, Purification, Crystallization and Structure Determination
# Full-length human IP6K2, the kinase domain of human PPIP5K2 (PPIP5K2KD; residues 1-
# 366), and the N-terminally truncated domain used for the crystallography studies (residues
# 41-366) were all sub-cloned, expressed and purified as before (Wang et al., 2012; Weaver et
# al., 2013). […]
# as §2, §3, §4, §5, §6, §7, §8
# primers were designed as shown below, with mutagenic primers underlined (only 5’ primers are […]
EC50 [1],IC50 [2],Compound,"stimulation of ATPase activity (in words) ([1]; 25 μM, Figure 2)",other results
2200 nM,440 nM,"O=P(O)(O)O[C@@H]1[C@@H](OP(=O)(O)O)[C@H](OP(=O)(O)O)[C@H](OCc2ccccc2)[C@H](OP(=O)(O)O)[C@H]1OP(=O)(O)O [compound 7, 2-O-Bn-InsP5]",less effective than was 2-O-Bn-5-PA-InsP4; also recorded: roughly doubling the rate of ATP hydrolysis that is induced by InsP6,"less potent than 2-O-Bn-5-PA-InsP4 (2) at stimulating ATPase activity ([1]; from EC50 values, Figure 4A): 4 fold; inhibition of [PP]2-InsP4 metabolism (in words) [2]: equally efficient"
–,–,"O=P(O)(O)O[C@@H]1[C@@H](OP(=O)(O)O)[C@H](OP(=O)(O)O)[C@H](O)[C@H](OP(=O)(O)O)[C@H]1OP(=O)(O)O [Ins(1,3,4,5,6)P5]",–,activation of substrate-stimulated ATPase activity [3]: 2- to 3 fold
–,–,"O=C(CP(=O)(O)O)O[C@@H]1[C@@H](OP(=O)(O)O)[C@H](OP(=O)(O)O)[C@H](O)[C@H](OP(=O)(O)O)[C@H]1OP(=O)(O)O [compound 3, 5-PA-InsP4]",dramatically reduced,–
–,–,"O=C(O[C@H]1[C@@H](OP(=O)(O)O)[C@H](OP(=O)(O)O)[C@@H](OP(=O)(O)O)[C@H](OP(=O)(O)O)[C@H]1OP(=O)(O)O)c1ccccc1 [compound 4, 2-O-benzoyl-InsP5]",only a minimal reduction in ATPase-stimulating activity,–
–,–,O=P(O)(O)O[C@H]1[C@H](OP(=O)(O)O)[C@@H](OP(=O)(O)O)[C@H](OP(=O)(O)O)[C@@H](OP(=O)(O)O)[C@H]1OP(=O)(O)O [InsP6],–,activation of substrate-stimulated ATPase activity [3]: 2- to 3 fold; affinity for InsP6 phosphorylation by PPIP5K2^KD (human PPIP5K2^KD): 390 nM; affinity of IP6K2 for InsP6 (human IP6K2): 430 nM; InsP6-stimulated ATPase activity (in words) (PPIP5K2^KD R213A mutant): abolished
1200 nM,140 nM,"O=C(CP(=O)(O)O)O[C@@H]1[C@@H](OP(=O)(O)O)[C@H](OP(=O)(O)O)[C@H](OP(=O)(O)O)[C@H](OP(=O)(O)O)[C@H]1OP(=O)(O)O [compound 1, 5-O-α-phosphonoacetyl-myo-inositol 1,2,3,4,6-pentakisphosphate]",–,stimulation of ATP hydrolysis ([1]; 25 μM analog): 5 fold; inhibition of [PP]2-InsP4 metabolism (in words) [2]: most potent inhibitor
8800 nM,2400 nM,"O=P(O)(O)O[C@@H]1[C@@H](OP(=O)(O)OP(=O)(O)O)[C@H](OP(=O)(O)O)[C@@H](OP(=O)(O)O)[C@@H](O)[C@H]1OP(=O)(O)O [compound 9, 5-PP-InsP4]",about half the rate shown by 2-O-Bn-5-PP-InsP4 (8),–
–,–,"NCCO[C@H]1[C@@H](OP(=O)(O)O)[C@H](OP(=O)(O)O)[C@@H](OP(=O)(O)O)[C@H](OP(=O)(O)O)[C@H]1OP(=O)(O)O [compound 6, 2-O-(2-aminoethyl)-InsP5]",did not stimulate ATPase activity,–
–,–,"CCCC(=O)O[C@H]1[C@@H](OP(=O)(O)O)[C@H](OP(=O)(O)O)[C@@H](OP(=O)(O)O)[C@H](OP(=O)(O)O)[C@H]1OP(=O)(O)O [compound 5, 2-O-butanoyl-InsP5]",sharp reduction in activity,–
2600 nM,500 nM,"O=P(O)(O)O[C@@H]1[C@H](OCc2ccccc2)[C@H](OP(=O)(O)O)[C@@H](OP(=O)(O)O)[C@H](OP(=O)(O)OP(=O)(O)O)[C@H]1OP(=O)(O)O [compound 8, 2-O-Bn-5-PP-InsP4]",–,"more effective at stimulating ATPase activity than 2-O-Bn-5-PA-IP4 (2) ([1]; 25 μM, Figure 2): 20%; rate of ligand-stimulated ATPase activity vs wild-type (in words) (PPIP5K2^KD E192G mutant): neither of these particular mutations altered the rate; rate of ligand-stimulated ATPase activity vs wild-type (in words) (PPIP5K2^KD E192Q mutant): neither of these particular mutations altered the rate"
